Experimental data reported in patent US8324172B2, “G protein coupled receptor agonists and antagonists and methods of activating and inhibiting G protein coupled receptors using the same” (Tufts Medical Center, Inc., priority 2000, dated 2012).
Changes are numbered by the printed parent chain. Values joined by “and” are separate entries in the source; they are usually repeats but may differ in a detail not shown here. Equal entries are not always repeated. Where a SMILES comes first, the peptide text is derived from it. Where no end group is shown, it is not given here. The star is where a group is joined. Palmitoyl = CCCCCCCCCCCCCCCC(=O)*

What was measured:
PAR4 [1] = target: T1, PAR4 (Homo sapiens, UniProt Q96RI0); assay: InsP formation in COS7 cells expressing PAR4; assay type: cell-based; set-up: expressed in transfected cells; host or cells: COS7, transient
T1 sequence (Q96RI0 18-385): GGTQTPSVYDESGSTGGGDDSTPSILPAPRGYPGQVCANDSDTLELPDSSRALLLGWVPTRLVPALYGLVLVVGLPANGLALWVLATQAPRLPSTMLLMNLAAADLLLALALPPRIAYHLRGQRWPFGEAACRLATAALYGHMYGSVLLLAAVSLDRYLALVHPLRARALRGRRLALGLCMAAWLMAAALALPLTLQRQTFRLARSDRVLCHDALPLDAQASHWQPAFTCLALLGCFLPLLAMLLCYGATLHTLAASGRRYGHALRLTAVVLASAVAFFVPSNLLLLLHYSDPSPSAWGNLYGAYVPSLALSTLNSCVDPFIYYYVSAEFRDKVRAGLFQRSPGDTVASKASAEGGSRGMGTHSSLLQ

PAR1 [2] = target: T2, PAR1 (Homo sapiens, UniProt P25116); assay: InsP formation in COS7 cells transiently transfected with wild-type PAR1; assay type: cell-based
T2 construct: expressed in transfected cells
T2 sequence (P25116 22-425): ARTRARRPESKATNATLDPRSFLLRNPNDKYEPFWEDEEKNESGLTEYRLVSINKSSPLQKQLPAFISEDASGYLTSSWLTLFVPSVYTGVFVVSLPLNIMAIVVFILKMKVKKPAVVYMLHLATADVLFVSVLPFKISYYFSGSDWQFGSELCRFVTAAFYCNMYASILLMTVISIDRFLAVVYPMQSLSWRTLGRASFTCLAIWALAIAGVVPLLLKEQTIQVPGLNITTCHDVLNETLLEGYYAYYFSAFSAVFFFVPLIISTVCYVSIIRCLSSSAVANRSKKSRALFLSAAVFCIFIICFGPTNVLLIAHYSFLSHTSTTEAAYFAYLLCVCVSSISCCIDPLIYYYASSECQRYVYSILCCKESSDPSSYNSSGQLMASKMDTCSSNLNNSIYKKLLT

[3] = test system: MDA-MB-231 breast cancer cells; assay: Chemoinvasion of MDA-MB-231 breast cancer cells (Transwell); assay type: cell-based, human; details: NIH3T3 conditioned medium
Protocol: Experiments were performed in order to determine if application of pepducins based on the i3 loops of PAR1, PAR2, or PAR4 would inhibit migration and invasion of breast cancer cells. It was determined that the highly invasive MDA-MB-231 breast cancer cell line expressed very high levels of functional PAR1, PAR2 and PAR4. […] Pepducins were added with NIH3T3 Conditioned medium (CM) to the bottom well of a Transwell apparatus.

PAR1 [4] = target: T2, PAR1; assay: InsP formation (PLC-β) in Rat1 fibroblasts expressing human PAR1; assay type: cell-based; details: 0.1 nM thrombin
delta377 PAR1 = assay: InsP formation in COS7 cells expressing delta377 (C-tail deleted) PAR1 mutant; assay type: cell-based, human; details: relative to wild type PAR1
S309P PAR1 = target: T3, S309P PAR1 (Homo sapiens, UniProt P25116, S309P); assay: InsP formation in COS7 cells expressing S309P PAR1 mutant; assay type: cell-based; details: relative to wild type PAR1
T3 construct: expressed in transfected cells; host or cells: COS7, transient
T3 sequence (P25116 22-425 S309P): T2 sequence (P25116 22-425) with S288P

murine platelets (PAR4) = assay: Aggregation of washed murine platelets; details: read-out: EC50 of aggregation of murine platelets
[5] = test system: TXA2, ADP, collagen, or GPIb/IX/V receptors; assay: Inhibition of human platelet aggregation induced by U46619, ADP, collagen or ristocetin; assay type: cell-based; details: 5 μM pepducin, ristocetin
From the text: 84, 1440 (1989)) and von Willebrand factor (GPIb/IX/V) (Savage et al., Cell 94, 657 (1998)) using platelets as the biologically-relevant system.

PAR1 [6] = target: T2, PAR1; assay: Inhibition of PAR1-dependent platelet Ca2+ signal; assay type: cell-based; details: SFLLRN (or thrombin) after peptide pre-treatment
Protocol: (§1) Platelet Ca2+ measurements were performed as in Example 1.
(§2) The integrated Ca^2+ response for the individual treatments are relative to the full Ca^2+ responses for each agonist (100%) recorded in the absence of P4pal-10 (top trace).

PAR4 [7] = target: T1, PAR4; assay: Inhibition of PAR4-dependent platelet Ca2+ signal (AYPGKF); assay type: cell-based; details: 3 micromolar pepducin; 200 Micromolar AYPGKF
Protocol: as §1, §2

[8] = Tail bleeding time and rebleeding in mice; details: 3 μmoles/L i.v.
[9] = test system: thrombin receptors on human platelets; assay: Inhibition of thrombin-induced human platelet aggregation; details: 3 μM pepducin
PAR1 [10] = target: T2, PAR1; assay: Inhibition of SFLLRN-induced human platelet aggregation; assay type: cell-based; details: 3 μM pepducin, 1 min preincubation
PAR4 [11] = target: T1, PAR4; assay: Inhibition of AYPGKF-induced human platelet aggregation; assay type: cell-based; details: AYPGKF
P2Y12 ADP receptor = target: T4, P2Y12 ADP receptor (Homo sapiens, UniProt Q9H244); assay: Irreversible aggregation of SFLLRN-activated human platelets (ADP autocrine response); assay type: cell-based; details: 3 μM SFLLRN
T4 construct: endogenous in cells; host or cells: gel-purified human platelets
From the text: Recently, the P2Y12 adenosine diphosphate (ADP) receptor was cloned by three independent groups (Hollopeter et al., Nature 409:202 (2001); Zhang et al., J. Biol. Chem. 276:8605 (2001); and Takasaki et al., Mol. Pharmacol. 60:432 (2001)) and shown to be the long-sought after target of the thienopyridine drugs clopidogrel and ticlopidine (Gachet et al., Biochem Pharmacol 40:2683 (1990); Mills et al., Arterioscler Thromb 12:430 (1992)). […] P2Y12 plays such a critical role in thrombus formation because it can modulate the strength of platelet-platelet adhesive interactions via multiple receptors such as PAR1. Inputs from P2Y12 stabilize the critical transition point of platelet-platelet aggregates during the progression from early reversible GPIIb-IIIa-fibrinogen binding to the late phase of irreversible binding to fibrinogen.
Aggregometry was performed by light scattering.

T4 sequence (Q9H244 whole entry): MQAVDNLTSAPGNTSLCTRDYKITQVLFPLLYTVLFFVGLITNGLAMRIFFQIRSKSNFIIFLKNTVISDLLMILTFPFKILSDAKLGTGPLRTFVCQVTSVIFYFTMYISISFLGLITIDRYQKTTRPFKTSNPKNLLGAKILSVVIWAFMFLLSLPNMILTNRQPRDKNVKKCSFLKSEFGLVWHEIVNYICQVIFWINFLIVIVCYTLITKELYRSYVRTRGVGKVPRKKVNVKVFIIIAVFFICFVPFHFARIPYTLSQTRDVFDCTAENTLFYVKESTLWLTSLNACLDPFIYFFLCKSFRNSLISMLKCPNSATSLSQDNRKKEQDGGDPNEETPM

With `CCCCCCCCCCCCCCCC(=O)N[C@@H](CCCNC(=N)N)C(=O)N[C@@H](CCSC)C(=O)N[C@@H](CC(C)C)C(=O)N[C@@H](CCCNC(=N)N)C(=O)N[C@@H](CO)C(=O)N[C@@H](CO)C(=O)N[C@@H](C)C(=O)N[C@@H](CCSC)C(=O)N[C@@H](CC(=O)O)C(=O)N[C@@H](CCC(=O)O)C(=O)N[C@@H](CC(N)=O)C(=O)N[C@@H](CO)C(=O)N[C@@H](CCC(=O)O)C(=O)N[C@@H](CCCCN)C(=O)N[C@@H](CCCCN)C(=O)N[C@@H](CCCNC(=N)N)C(=O)N[C@@H](CCCCN)C(=O)N[C@@H](CCCNC(=N)N)C(=O)N[C@@H](C)C(=O)N[C@H](C(=O)N[C@@H](Cc1ccccc1)C(N)=O)[C@@H](C)CC` [Pepducin P2pal-21F] the “activation of PAR4 (InsP)” value (PAR4 [1]; COS7 cells) was “not PAR4”, the “activation of PAR1 (InsP)” value (PAR1 [2]; COS7 cells, FIG. 2G) was “activated PAR1” and the inhibition of chemoinvasion [3] was 90%.
In the case of `CCCCCCCCCCCCCCCC(=O)N[C@@H](CCCCN)C(=O)N[C@@H](CCCCN)C(=O)N[C@@H](CO)C(=O)N[C@@H](CCCNC(=N)N)C(=O)N[C@@H](C)C(=O)N[C@@H](CC(C)C)C(=O)N[C@@H](Cc1ccccc1)C(N)=O` [Pepducin P1pal-7, Pal-KKSRALF] (Palmitoyl-KKSRALF-NH2), the inhibition of chemoinvasion [3] is reported as 30% and the “agonist activity in platelet aggregation” value (human platelets) is reported as “loss of stimulatory activity”.
In the case of thrombin [reference compound], the “full PAR1 thrombin response (InsP stimulation) of individual experiments” value (PAR1 [4]) is reported as 7.6 fold and 9.4 fold and 12.4 fold and 18 fold and 9.5 fold and 5.2 fold, the “shift of potency on delta377 mutant” value (delta377 PAR1) is reported as 22 fold and the “full extracellular agonist-stimulated InsP response” value (PAR4 [1]; 10 nM thrombin) is reported as 3.1 fold. The “InsP stimulation of WT PAR1 (100%)” value (PAR1 [2]; 0.1 nM thrombin) was 9.6 fold, the “loss of efficacy on S309P mutant” value (S309P PAR1) was 1.6 fold and the “loss of potency on S309P mutant” value (S309P PAR1) was 17 fold. The EC50 (murine platelets (PAR4)) was 0.6 nM.
In the case of `CCCCCCCCCCCCCCCC(=O)N[C@@H](CCCNC(=N)N)C(=O)N[C@@H](CS)C(=O)N[C@@H](CC(C)C)C(=O)N[C@@H](CO)C(=O)N[C@@H](CO)C(=O)N[C@@H](CO)C(=O)N[C@@H](C)C(=O)N[C@H](C(=O)N[C@@H](C)C(=O)N[C@@H](CC(N)=O)C(=O)N[C@@H](CCCNC(=N)N)C(=O)N[C@@H](CO)C(N)=O)C(C)C` [Pepducin P1pal-12] (Palmitoyl-RCLSSSAVANRS-NH2), the “block of aggregation by ligands of other platelet receptors” value [5] is reported as “did not block aggregation”, the “inhibition of PAR1-dependent Ca2+ response” value (PAR1 [6]) is reported as “effectively inhibits PAR1 activation” and the “inhibition of PAR1-dependent Ca2+ response” value (PAR1 [6]; listed as P1pal12) is reported as “completely block PAR1 signaling”. The “agonist activity in platelet aggregation” value (human platelets) was “loss of stimulatory activity”, the “inhibition of PAR4-dependent Ca2+ response” value (PAR4 [7]) was “does not block PAR4 activation” and the “effect on tail-bleeding time” value [8] was “did not prolong tail-bleeding time”. The “mean total bleeding time” value [8] was 95 s, the “re-bleeding / unstable haemostasis” value [8] was “did not prolong tail-bleeding time or result in unstable haemostasis” and the “re-bleeding / unstable haemostasis” value ([8]; listed as P1pal12) was “not observed”. The inhibition of aggregation ([9]; 3 nM thrombin, 1 min) was “completely blocked aggregation”, the inhibition of aggregation ([9]; 20 nM thrombin) was “not appreciably blocked” and the aggregation blocked (PAR1 [10]) was 75-95%. For the same molecule, the “inhibition of PAR4-dependent platelet aggregation” value (PAR4 [11]) was “does not inhibit PAR4-dependent platelet aggregation”.
For “Y12pal-24: pepducin based on the i3-loop of P2Y12; peptide KELYRS YVRTRGVGKVPRKKVNVF (SEQ ID NO:34) (KELYRSYVRTRGVGKVPRKKVNVF; also: palmitoyl lipid, position not given here) [Pepducin Y12pal-24]”, the “inhibition of irreversible platelet aggregation” value (P2Y12 ADP receptor; 0, 1, 3, or 10 μM pepducin) was “effective inhibitor of irreversible platelet aggregation”, the “efficacy of inhibition compared with apyrase” value (P2Y12 ADP receptor; 10 μM pepducin) was “equivalent in efficacy as addition of saturating amounts of apyrase” and the “agonist activity in platelet aggregation” value (human platelets) was “no agonist activity”.
